Experimental data as given in paper doi:10.1101/2024.10.11.617883, “A Streamlined High-Throughput LC-MS Assay for Quantifying Peptide Degradation in Cell Culture” (bioRxiv, 2024).
Read-outs that look alike come from different tables or passages of the source.

What was measured:
[1] = in vitro; conditions: human, cells or culture medium
Experimental: (§1) Human mesenchymal stem cells (hMSCs) (Rooster Bio, LOT 310368) at passage 3 were seeded into 24 well plates at a seeding density of 75,000 cells per well in 1mL of RoosterBasal-MSC-CC (RoosterBio, SU-022) containing RoosterBooster-MSC (RoosterBio SU-003). After 24 hour the media was changed, and peptide library AcβA-RGEFV-X-NH2 was added to the cell media for a final concentration of 37 μM per peptide. Each Library was tested in three times, each in triplicate with three technical repeats for a total of 27 wells. 40 μl samples were collected from the media at hours 0, 1, 4, 8, 24, and 48 in duplicate.
(§2) In-between timepoints, one set of samples was loaded directly within the LC-MS and measured as soon as possible, then stored at 4°C. The second set of samples was immediately frozen at −80°C. After 48 hours, samples were kept frozen and thawed just prior to LC-MS, and 4μL of acetic acid was added to each well. After three weeks the samples were tested again.
(§3) From each sample, 10 μL of crude solution was introduced by the LC-MS through an Thermo Scientific Vanquish LC System (Thermo Fisher Scientific) which outputted to a Thermo Scientific LTQ XL Linear Ion Trap Mass Spectrometer (Thermo Fisher Scientific). The sampled mixture was trapped on a column (ProntoSIL C18 AQ, 120 Å, 3 μm, 2.0 × 50 mm HPLC Column, PN 0502F184PS030, MAC-MOD Analytical Inc.). The samples were loaded onto the column with a solvent containing acetonitrile/water, 5:95 (v/v) containing 1% acetic acid at a flow rate of 300 μL/min and held for one minute. The sample was then eluted from the column with a linear gradient of 5–40% Solvent B (1% acetic acid in acetonitrile) at the same flow rate for five minutes. This was followed by a 1 min ramp up to 100% solvent B, where it was re-equilibrated with solvent A (1% acetic acid) to 5% solvent B over the course of 1 min and held there for 2 min. The column temperature was a constant 29 °C. The mass spectrometer was operated in positive ion mode. Using a heated ESI, the source voltage was set to 4.1 kV, and the capillary temperature was 350 °C.
(§4) Data analysis was performed on Xcalibur Software (Thermo Scientific). Peptides were identified automatically using the Thermo Xcalibur Processing Setup window where the mass (m/z) ±0.5 AMU and expected retention times for each quantified peptide were inputted. This was later used to isolate individual peptide species from the total ion count (TIC) trace using the Thermo Xcalibur Quan Setup window, where the area under the curve was calculated and visually inspected for accuracy. […] The integrated peak area of the peptide of interest was divided by the NH2-βF(βA)6-Amide internal standard to create an area ratio. Relative amounts of a peptide of peptide were then calculated by normalized all values to their corresponding time zero area ratio. Calculated data was visualized using RStudio.

[2] = Retention on the reverse-phase LC-MS column; type: physicochemical
Experimental: The column temperature was a constant 29 °C. The mass spectrometer was operated in positive ion mode.
Since salts from cell culture media adversely impact ionization and foul the MS, we send the mobile phase from the first 1.5 minutes of LCMS to waste prior to ionization to prevent salt accumulation in the mass spectrometer. Accordingly, peptides and internal standards which elute before the gradient begins are not suitable for quantification since they will not be analyze by the mass spectrometer. N-terminal acetylation, the addition of a phenylalanine, or β-homophenylalanine improves retention time by increasing they hydrophobicity of the polypeptide, which increases the affinity to the column (Figure 2A). After 48 hours of degradation, three internal standards candidates had both good retention times and less than 10% degradation (Figure 2B): 1) Ac-βA6-Amide, 2) NH2-βFβA6-Amide, and 3) Ac-FβA6-Amide. The ability of molecules to be identified in mass spectrometry is dependent on their propensity to become ionized, and the Ac-βA6-Amide standard was excluded due to weak signal intensity of the LC-MS (not shown), likely due to the lack of charged groups. […]

[3] = tested on: human mesenchymal stem cells (hMSCs)
Experimental: as §1, §2, §3, §4

[4] = human, cells or culture medium
Experimental: as §1, §2, §3, §4

CC(=O)N[C@@H](Cc1ccccc1)C(=O)NCCC(=O)NCCC(=O)NCCC(=O)NCCC(=O)NCCC(=O)NCCC(N)=O [Ac-FβA6-Amide]
metabolised at 48 h [1]: < 10%

CC(=O)NCCC(=O)NCCC(=O)NCCC(=O)NCCC(=O)NCCC(=O)NCCC(N)=O [Ac-βA6-Amide]
metabolised at 48 h [1]: < 10%

NCCC(=O)NCCC(=O)NCCC(=O)NCCC(=O)NCCC(=O)NCCC(N)=O [NH2-(βA)6-Amide]
affinity to the LC-MS column (retention) ([2]; ProntoSIL C18 AQ, gradient begins after 1 min at 5% B, first 1.5 minutes sent to waste): eluting before the chromatography gradient begins

NC(=O)CCNC(=O)CCNC(=O)CCNC(=O)CCNC(=O)CCNC(=O)CCNC(=O)C[C@@H](N)Cc1ccccc1 [NH2-βFβA6-Amide]
peptide elution time ([2]; ProntoSIL C18 AQ 2.0 x 50 mm, 5% B held 1 min then 5-40% acetonitrile (1% acetic acid) over 5 min, 300 μL/min, 29 °C, retention tied to hydrophobicity and column affinity): 2.68 min | time stable in cell culture [3]: 48 h | metabolised at 48 h [4]: < 10% | remaining at 48 h [4]: > 92%
